Measured values from patent US10221197B2, “Phosphatidylinositol 3-kinase inhibitors” (Gilead Sciences, Inc., priority 2014, dated 2019).
Counter-ions that a name gives are not always drawn. Like-named read-outs stand apart in the source and are kept apart here.

Tests used:
Assay type in all cases: biochemical
PI3Kβ = PI3Kβ (Homo sapiens (Human), UniProt P42338); test: TR-FRET enzymatic assay of PI3K isoforms (PI3Kβ); conditions: TR-FRET, 2×Km ATP, 2 μM PIP2, incubated for 30 minutes at 25° C.; read-out: β IC50
Sequence of PI3Kβ (P42338 whole entry, canonical isoform): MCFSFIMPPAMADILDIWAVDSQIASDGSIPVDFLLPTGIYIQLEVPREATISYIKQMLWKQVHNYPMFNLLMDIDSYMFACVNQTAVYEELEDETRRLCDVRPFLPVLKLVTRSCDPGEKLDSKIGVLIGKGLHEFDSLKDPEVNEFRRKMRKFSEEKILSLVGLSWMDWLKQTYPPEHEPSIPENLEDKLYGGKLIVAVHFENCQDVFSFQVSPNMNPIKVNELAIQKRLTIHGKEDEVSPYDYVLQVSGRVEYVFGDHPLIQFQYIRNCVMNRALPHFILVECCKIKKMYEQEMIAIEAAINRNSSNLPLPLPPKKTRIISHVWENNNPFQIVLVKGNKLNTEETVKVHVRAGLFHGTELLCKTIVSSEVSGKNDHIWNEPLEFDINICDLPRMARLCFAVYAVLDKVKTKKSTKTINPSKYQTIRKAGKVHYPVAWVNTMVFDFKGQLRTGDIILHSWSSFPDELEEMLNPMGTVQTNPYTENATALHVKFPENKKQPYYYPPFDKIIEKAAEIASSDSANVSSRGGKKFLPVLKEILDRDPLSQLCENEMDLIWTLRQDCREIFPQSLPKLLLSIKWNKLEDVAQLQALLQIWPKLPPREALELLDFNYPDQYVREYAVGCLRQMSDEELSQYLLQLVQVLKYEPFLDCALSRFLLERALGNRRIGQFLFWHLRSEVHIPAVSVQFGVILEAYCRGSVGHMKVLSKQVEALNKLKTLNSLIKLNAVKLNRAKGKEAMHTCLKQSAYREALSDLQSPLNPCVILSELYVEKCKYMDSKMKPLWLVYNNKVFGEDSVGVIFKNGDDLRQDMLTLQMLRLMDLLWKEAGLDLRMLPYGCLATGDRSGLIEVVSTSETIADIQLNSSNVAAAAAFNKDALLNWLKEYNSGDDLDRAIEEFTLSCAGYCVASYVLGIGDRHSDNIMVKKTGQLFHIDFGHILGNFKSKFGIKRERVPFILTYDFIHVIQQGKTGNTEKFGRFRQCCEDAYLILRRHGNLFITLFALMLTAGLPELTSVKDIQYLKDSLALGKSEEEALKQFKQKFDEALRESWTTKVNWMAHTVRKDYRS
Sequence of PI3Kβ (P27986 whole entry partner, canonical isoform): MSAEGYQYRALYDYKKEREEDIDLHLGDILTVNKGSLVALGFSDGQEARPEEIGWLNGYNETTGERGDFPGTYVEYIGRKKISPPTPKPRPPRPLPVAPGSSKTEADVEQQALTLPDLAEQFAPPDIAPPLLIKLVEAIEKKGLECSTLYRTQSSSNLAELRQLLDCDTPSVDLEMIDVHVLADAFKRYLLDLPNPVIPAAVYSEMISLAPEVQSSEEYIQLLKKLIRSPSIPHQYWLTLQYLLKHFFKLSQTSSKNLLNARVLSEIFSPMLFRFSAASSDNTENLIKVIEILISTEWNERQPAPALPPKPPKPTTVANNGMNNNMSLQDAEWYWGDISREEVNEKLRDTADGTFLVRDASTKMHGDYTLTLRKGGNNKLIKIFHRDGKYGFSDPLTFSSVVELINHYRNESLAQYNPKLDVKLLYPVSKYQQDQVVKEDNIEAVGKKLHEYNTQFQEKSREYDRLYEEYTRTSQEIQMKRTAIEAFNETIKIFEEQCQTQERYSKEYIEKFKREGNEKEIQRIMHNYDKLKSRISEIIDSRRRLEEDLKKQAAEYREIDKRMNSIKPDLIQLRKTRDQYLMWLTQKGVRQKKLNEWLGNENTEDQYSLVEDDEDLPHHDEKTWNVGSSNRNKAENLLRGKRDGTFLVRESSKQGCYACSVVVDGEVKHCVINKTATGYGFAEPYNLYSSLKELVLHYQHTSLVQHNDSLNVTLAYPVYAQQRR
Description: (§1) The compounds of formula (I) were characterized for their enzymatic activity against the PI3K isoforms. Certain compounds of the present application, including certain compounds of formula (II) and (III) were also characterized for their enzymatic activity against PI3K isoforms. The activities were measured using a time-resolved fluorescence resonance energy transfer (TR-FRET) assay.

PI3Kδ = PI3Kδ (Homo sapiens (Human), UniProt O00329); test: TR-FRET enzymatic assay of PI3K isoforms (PI3Kδ); conditions: 2×Km ATP, 2 μM PIP2, incubated for 30 minutes at 25° C., read-out: δ IC50
Sequence of PI3Kδ (O00329 whole entry, canonical isoform): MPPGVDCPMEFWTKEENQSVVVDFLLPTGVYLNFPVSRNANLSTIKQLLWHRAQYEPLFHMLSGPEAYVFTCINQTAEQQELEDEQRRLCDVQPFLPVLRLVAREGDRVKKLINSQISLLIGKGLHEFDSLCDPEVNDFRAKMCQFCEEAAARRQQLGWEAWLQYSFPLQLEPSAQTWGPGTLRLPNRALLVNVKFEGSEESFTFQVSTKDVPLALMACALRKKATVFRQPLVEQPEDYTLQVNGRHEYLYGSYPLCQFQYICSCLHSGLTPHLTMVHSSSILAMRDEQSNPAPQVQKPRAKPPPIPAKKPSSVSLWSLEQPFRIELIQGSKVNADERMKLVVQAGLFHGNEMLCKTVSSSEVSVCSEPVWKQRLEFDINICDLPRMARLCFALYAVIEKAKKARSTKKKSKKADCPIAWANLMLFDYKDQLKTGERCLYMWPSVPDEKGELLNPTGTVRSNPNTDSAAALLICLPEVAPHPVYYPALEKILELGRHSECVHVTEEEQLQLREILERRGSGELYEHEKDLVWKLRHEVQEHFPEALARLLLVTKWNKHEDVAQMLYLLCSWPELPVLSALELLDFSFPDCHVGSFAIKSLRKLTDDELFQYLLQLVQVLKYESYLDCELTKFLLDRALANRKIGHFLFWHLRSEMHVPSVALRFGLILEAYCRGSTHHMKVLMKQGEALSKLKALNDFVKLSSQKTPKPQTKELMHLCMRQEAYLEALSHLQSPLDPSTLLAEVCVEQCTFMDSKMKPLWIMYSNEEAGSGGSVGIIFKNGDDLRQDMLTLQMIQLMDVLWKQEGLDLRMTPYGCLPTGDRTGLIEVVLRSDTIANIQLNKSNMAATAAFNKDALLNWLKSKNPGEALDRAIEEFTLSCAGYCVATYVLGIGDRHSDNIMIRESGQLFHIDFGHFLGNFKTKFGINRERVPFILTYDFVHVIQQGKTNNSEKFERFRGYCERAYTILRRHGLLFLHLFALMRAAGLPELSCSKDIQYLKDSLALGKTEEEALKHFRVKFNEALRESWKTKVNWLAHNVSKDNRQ
Sequence of PI3Kδ (P27986 whole entry partner, canonical isoform): as the sequence (P27986 whole entry partner, canonical isoform) above
Description: as §1

PI3Kγ = PI3Kγ (Homo sapiens (Human), UniProt P48736); test: TR-FRET enzymatic assay of PI3K isoforms (PI3Kγ); conditions: read-out: γ IC50
Sequence of PI3Kγ (P48736 whole entry, canonical isoform): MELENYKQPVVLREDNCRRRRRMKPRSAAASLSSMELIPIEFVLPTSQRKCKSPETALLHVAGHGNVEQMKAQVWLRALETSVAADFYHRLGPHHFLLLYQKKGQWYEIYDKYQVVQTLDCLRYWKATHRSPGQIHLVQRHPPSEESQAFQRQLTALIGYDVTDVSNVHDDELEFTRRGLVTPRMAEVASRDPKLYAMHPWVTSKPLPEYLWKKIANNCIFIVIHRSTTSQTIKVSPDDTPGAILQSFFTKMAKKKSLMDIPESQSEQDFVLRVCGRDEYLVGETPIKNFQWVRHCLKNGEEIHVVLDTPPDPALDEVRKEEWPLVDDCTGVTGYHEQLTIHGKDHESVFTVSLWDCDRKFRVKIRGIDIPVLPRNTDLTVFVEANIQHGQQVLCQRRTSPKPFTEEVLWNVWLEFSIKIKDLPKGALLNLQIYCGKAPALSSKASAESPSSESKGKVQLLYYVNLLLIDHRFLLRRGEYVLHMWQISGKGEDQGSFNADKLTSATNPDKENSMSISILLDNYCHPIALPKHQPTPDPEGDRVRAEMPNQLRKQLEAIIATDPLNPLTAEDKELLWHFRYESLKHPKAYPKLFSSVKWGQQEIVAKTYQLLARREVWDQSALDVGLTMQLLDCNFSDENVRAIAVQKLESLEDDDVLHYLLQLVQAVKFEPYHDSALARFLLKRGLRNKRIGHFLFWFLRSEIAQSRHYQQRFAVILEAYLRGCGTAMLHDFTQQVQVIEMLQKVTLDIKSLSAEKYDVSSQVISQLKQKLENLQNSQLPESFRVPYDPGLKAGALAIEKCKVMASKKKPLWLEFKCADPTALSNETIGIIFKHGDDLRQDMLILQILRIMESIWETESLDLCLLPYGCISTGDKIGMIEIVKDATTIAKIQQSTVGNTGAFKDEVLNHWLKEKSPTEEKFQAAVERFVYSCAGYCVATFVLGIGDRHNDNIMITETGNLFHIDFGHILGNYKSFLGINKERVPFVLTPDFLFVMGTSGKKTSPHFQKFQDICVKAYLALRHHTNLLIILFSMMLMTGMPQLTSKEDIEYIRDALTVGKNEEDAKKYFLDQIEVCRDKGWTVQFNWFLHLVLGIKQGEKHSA
Sequence of PI3Kγ (Q8WYR1 whole entry partner, canonical isoform): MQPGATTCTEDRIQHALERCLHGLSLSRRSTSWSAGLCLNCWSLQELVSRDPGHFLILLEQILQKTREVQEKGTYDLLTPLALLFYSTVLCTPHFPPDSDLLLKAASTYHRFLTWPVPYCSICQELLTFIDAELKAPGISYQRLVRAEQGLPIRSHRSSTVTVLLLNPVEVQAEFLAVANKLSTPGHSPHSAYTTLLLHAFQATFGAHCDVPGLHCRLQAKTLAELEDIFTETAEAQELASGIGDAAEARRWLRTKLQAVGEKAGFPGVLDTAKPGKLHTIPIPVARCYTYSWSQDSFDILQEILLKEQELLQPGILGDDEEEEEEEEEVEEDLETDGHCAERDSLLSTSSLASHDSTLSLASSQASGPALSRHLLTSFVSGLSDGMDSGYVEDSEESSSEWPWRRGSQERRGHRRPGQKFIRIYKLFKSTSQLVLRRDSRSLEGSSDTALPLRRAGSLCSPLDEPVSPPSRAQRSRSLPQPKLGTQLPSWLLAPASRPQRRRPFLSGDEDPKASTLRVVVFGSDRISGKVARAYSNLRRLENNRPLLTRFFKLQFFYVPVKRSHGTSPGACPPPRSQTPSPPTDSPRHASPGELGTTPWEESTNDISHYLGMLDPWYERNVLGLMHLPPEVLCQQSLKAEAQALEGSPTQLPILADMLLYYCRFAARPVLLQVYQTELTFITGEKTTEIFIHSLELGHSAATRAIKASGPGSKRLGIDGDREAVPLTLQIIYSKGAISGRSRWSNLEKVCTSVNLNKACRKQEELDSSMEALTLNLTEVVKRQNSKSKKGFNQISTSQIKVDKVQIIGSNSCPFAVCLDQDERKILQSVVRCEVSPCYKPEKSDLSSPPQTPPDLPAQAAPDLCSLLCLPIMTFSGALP
Description: as §1

[1] = TR-FRET, 2×Km ATP, 2 μM PIP2, PI3Kγ at 2 nM, incubated for 30 minutes at 25° C.

Row | Compound | IC50 (PI3Kβ) [nM] | IC50 (PI3Kδ) [nM] | IC50 (PI3Kγ; [1]) [nM] | IC50 (PI3Kγ) [nM]
1 | C[C@H](Nc1ncnc2[nH]cnc12)c1nc2cccc(Cl)c2c(=O)n1-c1cccc(NC(N)=O)c1 [Compound 86, (S)-1-(3-(2-(1-((9H-purin-6-yl)amino)ethyl)-5-chloro-4-oxoquinazolin-3(4H)-yl)phenyl)urea] | 22 | 19 | 4300 | –
2 | CCNC(=O)Nc1cccc(-n2c([C@H](C)Nc3ncnc4[nH]cnc34)nc3cccc(Cl)c3c2=O)c1 [Compound 91, (S)-1-(3-(2-(1-((9H-purin-6-yl)amino)ethyl)-5-chloro-4-oxoquinazolin-3(4H)-yl)phenyl)-3-ethylurea] | 32 | 19 | 1400 | –
3 | CCNC(=O)Nc1cccc(-n2c([C@H](C)Nc3nc(C)nc(N)n3)nc3cccc(Cl)c3c2=O)c1 [Compound 93, (S)-1-(3-(2-(1-((4-amino-6-methyl-1,3,5-triazin-2-yl)amino)ethyl)-5-chloro-4-oxoquinazolin-3(4H)-yl)phenyl)-3-ethylurea] | 70 | 110 | 3700 | –
4 | C[C@H](Nc1ncnc(N)c1C#N)c1nc2cccc(Cl)c2c(=O)n1-c1cccc(NC(=O)Nc2ccccc2C(=O)O)c1 [Compound 96, (S)-2-(3-(3-(2-(1-((6-amino-5-cyanopyrimidin-4-yl)amino)ethyl)-5-chloro-4-oxoquinazolin-3(4H)-yl)phenyl)ureido)benzoic acid] | 230 | 5 | 2600 | –
5 | C[C@H](Nc1ncnc(N)c1C#N)c1nc2cccc(Cl)c2c(=O)n1-c1cccc(NC(=O)Nc2ccccc2S(=O)(=O)O)c1 [Compound 97, (S)-2-(3-(3-(2-(1-((6-amino-5-cyanopyrimidin-4-yl)amino)ethyl)-5-chloro-4-oxoquinazolin-3(4H)-yl)phenyl)ureido)benzenesulfonic acid] | 120 | 5 | 6000 | –
6 | C[C@H](Nc1ncnc(N)c1C#N)c1nc2cccc(Cl)c2c(=O)n1-c1cccc(NC(=O)Nc2ccc(Cl)c(C(F)(F)F)c2)c1 [Compound 99, (S)-1-(3-(2-(1-((6-amino-5-cyanopyrimidin-4-yl)amino)ethyl)-5-chloro-4-oxoquinazolin-3(4H)-yl)phenyl)-3-(4-chloro-3-(trifluoromethyl)phenyl)urea] | 8 | 19 | 1600 | –
7 | C[C@H](Nc1ncnc(N)c1C#N)c1nc2cccc(Cl)c2c(=O)n1-c1cccc(NC(=O)Nc2ccccc2C(F)(F)F)c1 [Compound 101, (S)-1-(3-(2-(1-((6-amino-5-cyanopyrimidin-4-yl)amino)ethyl)-5-chloro-4-oxoquinazolin-3(4H)-yl)phenyl)-3-(2-(trifluoromethyl)phenyl)urea] | 5 | 13 | 2500 | –
8 | C[C@H](Nc1ncnc2[nH]cnc12)c1nc2cccc(Cl)c2c(=O)n1-c1cccc(NC(=O)Nc2ccccc2C(F)(F)F)c1 [Compound 102, (S)-1-(3-(2-(1-((9H-purin-6-yl)amino)ethyl)-5-chloro-4-oxoquinazolin-3(4H)-yl)phenyl)-3-(2-(trifluoromethyl)phenyl)urea] | 7 | 31 | 670 | –
9 | C[C@H](Nc1ncnc2[nH]cnc12)c1nc2cccc(Cl)c2c(=O)n1-c1cccc(NC(=O)Nc2c(Cl)cccc2Cl)c1 [Compound 104, (S)-1-(3-(2-(1-((9H-purin-6-yl)amino)ethyl)-5-chloro-4-oxoquinazolin-3(4H)-yl)phenyl)-3-(2,6-dichlorophenyl)urea] | 8 | 30 | 740 | –
10 | C[C@H](Nc1ncnc(N)c1C#N)c1nc2cccc(Cl)c2c(=O)n1-c1cccc(NC(=O)Nc2ccccc2C#N)c1 [Compound 106, (S)-1-(3-(2-(1-((6-amino-5-cyanopyrimidin-4-yl)amino)ethyl)-5-chloro-4-oxoquinazolin-3(4H)-yl)phenyl)-3-(2-cyanophenyl)urea] | 4800 | 20 | – | > 10000
11 | C[C@H](Nc1ncnc(N)c1C#N)c1nc2cccc(F)c2c(=O)n1-c1cccc(NC(=O)Nc2ccccc2Cl)c1 [Compound 108, (S)-1-(3-(2-(1-((6-amino-5-cyanopyrimidin-4-yl)amino)ethyl)-5-fluoro-4-oxoquinazolin-3(4H)-yl)phenyl)-3-(2-chlorophenyl)urea] | 3 | 24 | 8500 | –
12 | C[C@H](Nc1ncnc(N)c1C#N)c1nc2cccc(F)c2c(=O)n1-c1cccc(NC(=O)Nc2ccccc2C(F)(F)F)c1 [Compound 110, (S)-1-(3-(2-(1-((6-amino-5-cyanopyrimidin-4-yl)amino)ethyl)-5-fluoro-4-oxoquinazolin-3(4H)-yl)phenyl)-3-(2-(trifluoromethyl)phenyl)urea] | 16 | 57 | > 10000 | –
13 | C[C@H](Nc1ncnc(N)c1C#N)c1nc2cccc(Cl)c2c(=O)n1-c1cccc(NC(=O)Nc2ccncc2Cl)c1 [Compound 111, (S)-1-(3-(2-(1-((6-amino-5-cyanopyrimidin-4-yl)amino)ethyl)-5-chloro-4-oxoquinazolin-3(4H)-yl)phenyl)-3-(3-chloropyridin-4-yl)urea, trifluoroacetic acid salt] | 4 | 7 | 4300 | –
14 | C[C@H](Nc1ncnc2[nH]cnc12)c1nc2cccc(Cl)c2c(=O)n1-c1cccc(NC(=O)Nc2ccncc2Cl)c1 [Compound 112, (S)-1-(3-(2-(1-((9H-purin-6-yl)amino)ethyl)-5-chloro-4-oxoquinazolin-3(4H)-yl)phenyl)-3-(3-chloropyridin-4-yl)urea] | 6 | 26 | 1600 | –
15 | CONC(=O)Nc1cccc(-n2c([C@H](C)Nc3ncnc(N)c3C#N)nc3cccc(Cl)c3c2=O)c1 [Compound 115, (S)-1-(3-(2-(1-((6-amino-5-cyanopyrimidin-4-yl)amino)ethyl)-5-chloro-4-oxoquinazolin-3(4H)-yl)phenyl)-3-methoxyurea] | 14 | 5 | 3700 | –

Continued by falling IC50 (PI3Kβ), values first:

Row | IC50 (PI3Kβ) [nM] | IC50 (PI3Kδ) [nM] | IC50 (PI3Kγ; [1]) [nM] | IC50 (PI3Kγ) [nM] | Compound
16 | 58 | 29 | 3300 | – | C[C@H](Nc1ncnc(N)c1C#N)c1nc2cccc(Cl)c2c(=O)n1-c1cccc(NC(=O)Nc2ccccc2OCC(=O)O)c1 [Compound 98, (S)-2-(2-(3-(3-(2-(1-((6-amino-5-cyanopyrimidin-4-yl)amino)ethyl)-5-chloro-4-oxoquinazolin-3(4H)-yl)phenyl)ureido)phenoxy)acetic acid]
17 | 37 | 10 | 3800 | – | C[C@H](Nc1ncnc(N)c1C#N)c1nc2cccc(Cl)c2c(=O)n1-c1cccc(NC(=O)Nc2nnn[nH]2)c1 [Compound 114, (S)-1-(3-(2-(1-((6-amino-5-cyanopyrimidin-4-yl)amino)ethyl)-5-chloro-4-oxoquinazolin-3(4H)-yl)phenyl)-3-(1H-tetrazol-5-yl)urea]
18 | 21 | 33 | 4500 | – | CNC(=O)Nc1cccc(-n2c([C@H](C)Nc3ncnc4[nH]cnc34)nc3cccc(Cl)c3c2=O)c1 [Compound 87, (S)-1-(3-(2-(1-((9H-purin-6-yl)amino)ethyl)-5-chloro-4-oxoquinazolin-3(4H)-yl)phenyl)-3-methylurea]
19 | 16 | 1 | 1600 | – | CCNC(=O)Nc1cccc(-n2c([C@H](C)Nc3ncnc(N)c3C#Cc3ccccn3)nc3cccc(Cl)c3c2=O)c1 [Compound 92]
20 | 16 | 6 | 1500 | – | Cc1ccccc1NC(=O)Nc1cccc(-n2c([C@H](C)Nc3ncnc(N)c3C#N)nc3cccc(Cl)c3c2=O)c1 [Compound 107, (S)-1-(3-(2-(1-((6-amino-5-cyanopyrimidin-4-yl)amino)ethyl)-5-chloro-4-oxoquinazolin-3(4H)-yl)phenyl)-3-(o-tolyl)urea]
21 | 9 | 2 | 2600 | – | COc1ccccc1NC(=O)Nc1cccc(-n2c([C@H](C)Nc3ncnc(N)c3C#N)nc3cccc(Cl)c3c2=O)c1 [Compound 109, (S)-1-(3-(2-(1-((6-amino-5-cyanopyrimidin-4-yl)amino)ethyl)-5-chloro-4-oxoquinazolin-3(4H)-yl)phenyl)-3-(2-methoxyphenyl)urea]
22 | 6 | 6 | 4300 | – | CNC(=O)Nc1cccc(-n2c([C@H](C)Nc3ncnc(N)c3C#N)nc3cccc(Cl)c3c2=O)c1 [Compound 89, (S)-1-(3-(2-(1-((6-amino-5-cyanopyrimidin-4-yl)amino)ethyl)-5-chloro-4-oxoquinazolin-3(4H)-yl)phenyl)-3-methylurea]
23 | 4 | 2 | 2700 | – | C[C@H](Nc1ncnc(N)c1C#N)c1nc2cccc(Cl)c2c(=O)n1-c1cccc(NC(N)=O)c1 [Compound 88, (S)-1-(3-(2-(1-((6-amino-5-cyanopyrimidin-4-yl)amino)ethyl)-5-chloro-4-oxoquinazolin-3(4H)-yl)phenyl)urea]
24 | 1 | 3 | 1400 | – | C[C@H](Nc1ncnc(N)c1C#N)c1nc2cccc(Cl)c2c(=O)n1-c1cccc(NC(=O)Nc2ccccc2Cl)c1 [Compound 100, (S)-1-(3-(2-(1-((6-amino-5-cyanopyrimidin-4-yl)amino)ethyl)-5-chloro-4-oxoquinazolin-3(4H)-yl)phenyl)-3-(2-chlorophenyl)urea]
